Test results taken from patent US20140228287A1, “1-[(3-CYANO-PYRIDIN-2-YL)METHYL]-3-METHYL-7-(2-BUTYN-1-YL)-8-[3-(R)-AMINO-PIPERIDIN-1-YL]-AXANTHINE FOR THE TREATMENT OF A METABOLIC DISORDER OF A PREDOMINANTLY CARNIVOROUS NON-HUMAN ANIMAL” (BOEHRINGER INGELHEIM VETMEDICA GMBH, priority 2010, published 2014).
Structures can show the parent of a compound that is named as a salt. Where two headings read alike, the source gives them in different places.

Assays:
diabetic ZDF rats = test: Delayed OGTT in diabetic ZDF rats; format: in vivo, rat; conditions: 1 mg/kg 16 hours before the test
Description: A delayed oral glucose tolerance test (OGTT) was applied to diabetic db/db mice and diabetic ZDF rats, as describes in the following.
Male Zucker Diabetic Fatty (ZDF) rats (ZDF/Crl-Leprfa) were obtained from Charles River (USA). Animals were fed ad libitum with a special pelleted diet (Diet No. 2437 [containing 4.5% sucrose], Provimi Kliba, Switzerland) and had free access to water. Animals were housed in groups with a 12 h/12 h light/dark cycle (lights out between 6 p.m. and 6 a.m.). The rats were used for the experiments at 12 weeks of age.
The day before the OGTT, a blood sample from db/db mice or ZDF rats fasted for 2 hours was obtained by cutting the tip of the tail without anaesthesia and the animals were randomized for glucose (n=7 per group). The animals were fed again for 2 hours and then orally administered with either vehicle or 1-[(3-cyano-pyridin-2-yl)methyl]-3-methyl-7-(2-butyn-1-yl)-8-[3-(R)-amino-piperidin-1-yl]-xanthine monohydrochloride at doses between 0.3 and 3 mg/kg bw. A basal blood sample (pre-load) was obtained the next morning after overnight fasting for 16 hours by cutting the tip of the tail without anaesthesia. […] Additional blood samples were taken from the tip of the tail 30 min, 60 min, 90 min, 120 min, and 180 min after the glucose load, and blood glucose was measured. […]

DPP IV = target: T1, DPP IV (Felis catus, UniProt Q9N2I7); test: Exploratory multiple dose PK/PD (1.0/3.0/9.0 mg/animal, 14 days) in cats: DPP IV activity; format: in vivo, cat; conditions: once daily oral 14 days, read-out: DPP IV activity in cat plasma; for response vs control in vivo at 1 mg/animal: head 1 mg/animal (title 1.0 mg/animal); for response vs control in vivo at 3 mg/animal: head 3 mg/animal (title 3.0 mg/animal); for response vs control in vivo at 9 mg/animal: head 9 mg/animal (title 9.0 mg/animal)
T1 construct: Blood samples for the determination of this compound and DPP IV activity were collected; from tissue; host or cells: plasma of domestic short hair / purpose-bred cats dosed orally
T1 sequence (Q9N2I7 38-765 limits assumed): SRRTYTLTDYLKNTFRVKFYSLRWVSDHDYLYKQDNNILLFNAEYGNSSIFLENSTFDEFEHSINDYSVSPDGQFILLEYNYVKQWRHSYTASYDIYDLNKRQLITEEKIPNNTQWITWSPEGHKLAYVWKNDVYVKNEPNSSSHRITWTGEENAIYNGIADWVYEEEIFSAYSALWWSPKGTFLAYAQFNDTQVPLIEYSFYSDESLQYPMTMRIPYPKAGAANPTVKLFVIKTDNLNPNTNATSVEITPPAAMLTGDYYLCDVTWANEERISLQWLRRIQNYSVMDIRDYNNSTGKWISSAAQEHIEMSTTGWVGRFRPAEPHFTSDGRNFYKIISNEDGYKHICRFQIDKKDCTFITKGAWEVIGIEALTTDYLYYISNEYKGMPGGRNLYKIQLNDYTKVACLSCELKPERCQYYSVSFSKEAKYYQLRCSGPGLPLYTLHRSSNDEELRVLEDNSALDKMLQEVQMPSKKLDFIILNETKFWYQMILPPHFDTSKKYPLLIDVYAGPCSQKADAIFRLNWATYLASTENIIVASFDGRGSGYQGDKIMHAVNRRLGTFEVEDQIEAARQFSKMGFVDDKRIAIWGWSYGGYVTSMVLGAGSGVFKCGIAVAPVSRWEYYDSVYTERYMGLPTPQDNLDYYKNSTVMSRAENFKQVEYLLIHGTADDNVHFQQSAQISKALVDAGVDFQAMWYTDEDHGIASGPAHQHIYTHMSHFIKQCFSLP
Description: The aim of this study was to investigate the PK/PD effects of 1-[(3-cyano-pyridin-2-yl)methyl]-3-methyl-7-(2-butyn-1-yl)-8-[3-(R)-amino-piperidin-1-yl]-xanthine in cats following repeated oral administration of 0, 1, 3 and 9 mg/animal over 14 days corresponding to a dose of 0, 0.25, 0.75 and 2.25 mg/kg body weight for a cat weighing 4 kg. (Dosages were based on the free base: 1 mg 1-[(3-cyano-pyridin-2-yl)methyl]-3-methyl-7-(2-butyn-1-yl)-8-[3-(R)-amino-piperidin-1-yl]-xanthine monohydrochloride corresponds to 0.923 mg 1-[(3-cyano-pyridin-2-yl)methyl]-3-methyl-7-(2-butyn-1-yl)-8-[3-(R)-amino-piperidin-1-yl]-xanthine free base).
For this purpose, twelve clinically healthy male adult domestic short hair cats with a body weight range of 3.5-4.8 kg were used. The animals were randomly allocated to 4 groups, 3 animals per group. All animals were treated once daily orally for 14 days (i.e. on days 0-13). The test article was administered via capsules at doses of 1 (group II), 3 (group III) or 9 (group IV) mg of the monohydrochloride compound per animal; group I received placebo serving as controls. Blood samples for PK and PD (DPP IV activity) investigations were drawn at 0 h (i.e. prior to the 1st treatment), 0.5, 1, 2, 4, 8, 12 and 24 h after the 1st treatment as well as 24 h after the 3rd, 5th, 7th, 9th, 11th and 13th treatment and 0.5, 1, 2, 4, 8, 12 and 24 h after the 14th treatment.

For `CC#CCn1c(N2CCC[C@@H](N)C2)nc2c1c(=O)n(Cc1ncccc1C#N)c(=O)n2C` [1-[(3-cyano-pyridin-2-yl)methyl]-3-methyl-7-(2-butyn-1-yl)-8-[3-(R)-amino-piperidin-1-yl]-xanthine monohydrochloride], the “suppression of glucose excursion in OGTT” value (diabetic ZDF rats) was 35%, the response vs control in vivo at 1 mg/animal (DPP IV; 0.5 h, 0.5 h) was 31.3% and the response vs control in vivo at 3 mg/animal (DPP IV; 0.5 h, 0.5 h) was 16%. It also gave a response vs control in vivo at 9 mg/animal (DPP IV; 0.5 h, 0.5 h) of 8%, a response vs control in vivo at 1 mg/animal (DPP IV; 1 h, 1 h) of 8.7% and a response vs control in vivo at 3 mg/animal (DPP IV; 1 h, 1 h) of 10.3%. It also gave a response vs control in vivo at 9 mg/animal (DPP IV; 1 h, 1 h) of 7.3%, a response vs control in vivo at 1 mg/animal (DPP IV; 2 h, 2 h) of 9.7% and a response vs control in vivo at 3 mg/animal (DPP IV; 2 h, 2 h) of 8%. For the same compound, the response vs control in vivo at 9 mg/animal (DPP IV; 2 h, 2 h) was 7%, the response vs control in vivo at 1 mg/animal (DPP IV; 4 h, 4 h) was 11.7% and the response vs control in vivo at 3 mg/animal (DPP IV; 4 h, 4 h) was 8%. It also gave a response vs control in vivo at 9 mg/animal (DPP IV; 4 h, 4 h) of 8%, a response vs control in vivo at 1 mg/animal (DPP IV; 8 h, 8 h) of 17% and a response vs control in vivo at 3 mg/animal (DPP IV; 8 h, 8 h) of 11.3%. It also gave a response vs control in vivo at 9 mg/animal (DPP IV; 8 h, 8 h) of 9.3%, a response vs control in vivo at 1 mg/animal (DPP IV; 12 h, 12 h) of 28% and a response vs control in vivo at 3 mg/animal (DPP IV; 12 h, 12 h) of 14%. For the same compound, the response vs control in vivo at 9 mg/animal (DPP IV; 12 h, 12 h) was 10.7%, the response vs control in vivo at 1 mg/animal (DPP IV; 24 h, 24 h) was 57.7% and the response vs control in vivo at 3 mg/animal (DPP IV; 24 h, 24 h) was 31.7%. The response vs control in vivo at 9 mg/animal (DPP IV; 24 h, 24 h) was 18%, the response vs control in vivo at 1 mg/animal (DPP IV; 72 h, 72 h) was 35.3% and the response vs control in vivo at 3 mg/animal (DPP IV; 72 h, 72 h) was 23.3%. The response vs control in vivo at 9 mg/animal (DPP IV; 72 h, 72 h) was 14.3%, the response vs control in vivo at 1 mg/animal (DPP IV; 120 h, 120 h) was 63% and the response vs control in vivo at 3 mg/animal (DPP IV; 120 h, 120 h) was 31.7%. For the same compound, the response vs control in vivo at 9 mg/animal (DPP IV; 120 h, 120 h) was 17.7%, the response vs control in vivo at 1 mg/animal (DPP IV; 168 h, 168 h) was 54% and the response vs control in vivo at 3 mg/animal (DPP IV; 168 h, 168 h) was 41%. For the same compound, the response vs control in vivo at 9 mg/animal (DPP IV; 168 h, 168 h) was 14.7%, the response vs control in vivo at 1 mg/animal (DPP IV; 216 h, 216 h) was 57% and the response vs control in vivo at 3 mg/animal (DPP IV; 216 h, 216 h) was 31.7%. The response vs control in vivo at 9 mg/animal (DPP IV; 216 h, 216 h) was 15%, the response vs control in vivo at 1 mg/animal (DPP IV; 264 h, 264 h) was 32.7% and the response vs control in vivo at 3 mg/animal (DPP IV; 264 h, 264 h) was 19.3%. For the same compound, the response vs control in vivo at 9 mg/animal (DPP IV; 264 h, 264 h) was 14% and the response vs control in vivo at 1 mg/animal (DPP IV; 312 h, 312 h) was 61.3%.
